Assay [1] has as its target T1, Transcription intermediary factor 1-alpha (Homo sapiens) (UniProt O15164).
T1 sequence (whole entry): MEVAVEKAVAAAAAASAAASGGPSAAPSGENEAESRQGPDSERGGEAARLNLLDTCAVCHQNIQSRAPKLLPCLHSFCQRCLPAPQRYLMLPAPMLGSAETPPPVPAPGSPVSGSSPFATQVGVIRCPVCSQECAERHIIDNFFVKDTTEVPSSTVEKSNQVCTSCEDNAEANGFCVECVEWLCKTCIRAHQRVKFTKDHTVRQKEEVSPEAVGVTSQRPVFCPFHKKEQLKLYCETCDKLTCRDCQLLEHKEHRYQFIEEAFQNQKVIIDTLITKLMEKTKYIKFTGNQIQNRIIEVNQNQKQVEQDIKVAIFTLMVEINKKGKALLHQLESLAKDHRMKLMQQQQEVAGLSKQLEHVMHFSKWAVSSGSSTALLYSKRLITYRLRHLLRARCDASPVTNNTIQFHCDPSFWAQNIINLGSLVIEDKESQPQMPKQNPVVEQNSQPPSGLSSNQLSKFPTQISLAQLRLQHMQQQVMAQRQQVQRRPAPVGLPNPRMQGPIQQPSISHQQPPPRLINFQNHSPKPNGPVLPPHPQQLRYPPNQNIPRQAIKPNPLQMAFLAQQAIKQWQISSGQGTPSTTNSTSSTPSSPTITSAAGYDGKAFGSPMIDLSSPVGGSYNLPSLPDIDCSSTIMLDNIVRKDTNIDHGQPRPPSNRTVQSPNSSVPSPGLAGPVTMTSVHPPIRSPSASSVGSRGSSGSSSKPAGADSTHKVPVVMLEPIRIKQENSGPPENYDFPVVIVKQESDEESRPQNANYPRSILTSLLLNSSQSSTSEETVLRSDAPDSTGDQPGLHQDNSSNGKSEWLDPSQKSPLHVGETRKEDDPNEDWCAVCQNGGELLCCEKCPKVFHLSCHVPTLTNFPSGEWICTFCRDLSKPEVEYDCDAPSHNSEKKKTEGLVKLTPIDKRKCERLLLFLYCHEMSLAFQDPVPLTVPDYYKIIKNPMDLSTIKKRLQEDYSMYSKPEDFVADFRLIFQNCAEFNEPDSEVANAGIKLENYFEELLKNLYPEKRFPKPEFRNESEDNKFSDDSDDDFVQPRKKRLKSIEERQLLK
The assay can be described thus: Binding affinity to TRIM24 (unknown origin) using biotinylated histone peptide H4 as substrate at 1 uM incubated for 2 hrs by AlphaScreen assay relative to control. (In general: In Alpha technology, singlet oxygen from a donor bead excites a nearby acceptor bead.)

Assay [2] has as its target SWI/SNF-related matrix-associated actin-dependent regulator of chromatin subfamily A member 4 (Homo sapiens) (UniProt P51532). The assay can be described thus: Binding affinity to SMARCA4 (unknown origin) using biotinylated histone peptide H4 as substrate at 1 uM incubated for 2 hrs by AlphaScreen assay relative to control.
In assay [3] the target is Transcription initiation factor TFIID subunit 1 (Homo sapiens) (UniProt P21675). The conditions noted are these: time 30.0 min.
Assay [4] has as its target T2, Bromodomain-containing protein 9 (Homo sapiens) (UniProt Q9H8M2).
T2 sequence (whole entry): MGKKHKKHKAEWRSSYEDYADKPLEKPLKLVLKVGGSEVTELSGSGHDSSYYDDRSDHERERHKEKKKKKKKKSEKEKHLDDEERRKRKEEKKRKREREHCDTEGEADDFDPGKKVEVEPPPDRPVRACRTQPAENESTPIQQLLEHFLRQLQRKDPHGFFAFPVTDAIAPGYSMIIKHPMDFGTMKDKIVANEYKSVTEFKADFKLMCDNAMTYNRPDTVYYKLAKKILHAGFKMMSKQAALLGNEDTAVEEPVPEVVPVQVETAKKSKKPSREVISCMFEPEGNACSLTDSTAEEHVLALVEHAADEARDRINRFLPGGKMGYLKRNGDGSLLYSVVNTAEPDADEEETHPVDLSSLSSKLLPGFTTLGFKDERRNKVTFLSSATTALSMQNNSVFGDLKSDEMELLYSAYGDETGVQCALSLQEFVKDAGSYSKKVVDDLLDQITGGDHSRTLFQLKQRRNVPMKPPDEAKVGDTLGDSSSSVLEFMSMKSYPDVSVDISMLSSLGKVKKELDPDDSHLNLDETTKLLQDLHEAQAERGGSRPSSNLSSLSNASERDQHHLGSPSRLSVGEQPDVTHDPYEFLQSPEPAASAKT
The assay can be described thus: Binding affinity to BRD9 (unknown origin) using biotinylated histone peptide H4 as substrate at 1 uM incubated for 2 hrs by AlphaScreen assay relative to control.

The species named for assay [5] is Homo sapiens. Particulars: time 30.0 min.
Assay [6] addresses T3, Bromodomain-containing protein 7 (Homo sapiens) (UniProt Q9NPI1).
T3 sequence (whole entry): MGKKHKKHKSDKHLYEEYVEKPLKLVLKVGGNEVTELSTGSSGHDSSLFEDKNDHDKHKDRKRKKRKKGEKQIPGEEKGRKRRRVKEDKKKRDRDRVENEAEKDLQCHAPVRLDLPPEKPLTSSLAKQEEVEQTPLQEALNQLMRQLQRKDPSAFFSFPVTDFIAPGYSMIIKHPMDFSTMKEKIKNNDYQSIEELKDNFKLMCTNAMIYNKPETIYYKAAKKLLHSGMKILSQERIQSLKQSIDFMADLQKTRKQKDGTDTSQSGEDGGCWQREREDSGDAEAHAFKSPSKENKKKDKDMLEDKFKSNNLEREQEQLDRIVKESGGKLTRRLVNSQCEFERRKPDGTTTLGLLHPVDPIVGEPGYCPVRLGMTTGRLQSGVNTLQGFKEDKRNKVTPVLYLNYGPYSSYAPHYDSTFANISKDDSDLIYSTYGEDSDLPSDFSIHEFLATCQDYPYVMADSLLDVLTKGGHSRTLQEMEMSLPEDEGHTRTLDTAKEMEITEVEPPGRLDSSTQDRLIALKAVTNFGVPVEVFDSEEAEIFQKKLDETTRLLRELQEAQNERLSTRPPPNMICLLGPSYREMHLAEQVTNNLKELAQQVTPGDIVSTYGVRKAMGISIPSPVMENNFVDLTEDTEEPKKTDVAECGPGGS
The experiment in a line: Binding affinity to BRD7 (unknown origin) using biotinylated histone peptide H4 as substrate at 1 uM incubated for 2 hrs by AlphaScreen assay relative to control.

The target of assay [7] is Histone acetyltransferase p300 (Homo sapiens) (UniProt Q09472). The assay can be described thus: Binding affinity to EP300 (unknown origin) using biotinylated histone peptide H4 as substrate at 1 uM incubated for 2 hrs by AlphaScreen assay relative to control.
Assay [8] has as its target Bromodomain testis-specific protein (Homo sapiens) (UniProt Q58F21). The assay can be described thus: Binding affinity to BRDT BD1 (unknown origin) using biotinylated histone peptide H4 as substrate at 1 uM incubated for 2 hrs by AlphaScreen assay relative to control.
The target in assay [9] is CREB-binding protein (Homo sapiens) (UniProt Q92793). Particulars: time 30.0 min.
The subject of assay [10] is MOLM-13. The assay can be described thus: cells. The conditions noted are these: Homo sapiens, MOLM-13, 48 h.
Description: Antiproliferative activity against human MOLM-13 cells assessed as inhibition of cell growth incubated for 48 hrs by MTT assay
In assay [11] the target is Histone acetyltransferase p300 (Homo sapiens) (UniProt Q09472). Particulars: time 30.0 min.

pIC50: −log10 of the molar value.

In ChEMBL document CHEMBL5532655, “Discovery of (R)-4-(8-methoxy-2-methyl-1-(1-phenylethy)-1H-imidazo[4,5-c]quinnolin-7-yl)-3,5-dimethylisoxazole as a potent and selective BET inhibitor for treatment of acute myeloid leukemia (AML) guided by FEP calculation” (Eur J Med Chem, 2024) one finds Activity, ΔTm and IC50 data, which are given here for two compounds.

Sequence of Histone acetyltransferase p300 (Homo sapiens) (Q09472 whole entry): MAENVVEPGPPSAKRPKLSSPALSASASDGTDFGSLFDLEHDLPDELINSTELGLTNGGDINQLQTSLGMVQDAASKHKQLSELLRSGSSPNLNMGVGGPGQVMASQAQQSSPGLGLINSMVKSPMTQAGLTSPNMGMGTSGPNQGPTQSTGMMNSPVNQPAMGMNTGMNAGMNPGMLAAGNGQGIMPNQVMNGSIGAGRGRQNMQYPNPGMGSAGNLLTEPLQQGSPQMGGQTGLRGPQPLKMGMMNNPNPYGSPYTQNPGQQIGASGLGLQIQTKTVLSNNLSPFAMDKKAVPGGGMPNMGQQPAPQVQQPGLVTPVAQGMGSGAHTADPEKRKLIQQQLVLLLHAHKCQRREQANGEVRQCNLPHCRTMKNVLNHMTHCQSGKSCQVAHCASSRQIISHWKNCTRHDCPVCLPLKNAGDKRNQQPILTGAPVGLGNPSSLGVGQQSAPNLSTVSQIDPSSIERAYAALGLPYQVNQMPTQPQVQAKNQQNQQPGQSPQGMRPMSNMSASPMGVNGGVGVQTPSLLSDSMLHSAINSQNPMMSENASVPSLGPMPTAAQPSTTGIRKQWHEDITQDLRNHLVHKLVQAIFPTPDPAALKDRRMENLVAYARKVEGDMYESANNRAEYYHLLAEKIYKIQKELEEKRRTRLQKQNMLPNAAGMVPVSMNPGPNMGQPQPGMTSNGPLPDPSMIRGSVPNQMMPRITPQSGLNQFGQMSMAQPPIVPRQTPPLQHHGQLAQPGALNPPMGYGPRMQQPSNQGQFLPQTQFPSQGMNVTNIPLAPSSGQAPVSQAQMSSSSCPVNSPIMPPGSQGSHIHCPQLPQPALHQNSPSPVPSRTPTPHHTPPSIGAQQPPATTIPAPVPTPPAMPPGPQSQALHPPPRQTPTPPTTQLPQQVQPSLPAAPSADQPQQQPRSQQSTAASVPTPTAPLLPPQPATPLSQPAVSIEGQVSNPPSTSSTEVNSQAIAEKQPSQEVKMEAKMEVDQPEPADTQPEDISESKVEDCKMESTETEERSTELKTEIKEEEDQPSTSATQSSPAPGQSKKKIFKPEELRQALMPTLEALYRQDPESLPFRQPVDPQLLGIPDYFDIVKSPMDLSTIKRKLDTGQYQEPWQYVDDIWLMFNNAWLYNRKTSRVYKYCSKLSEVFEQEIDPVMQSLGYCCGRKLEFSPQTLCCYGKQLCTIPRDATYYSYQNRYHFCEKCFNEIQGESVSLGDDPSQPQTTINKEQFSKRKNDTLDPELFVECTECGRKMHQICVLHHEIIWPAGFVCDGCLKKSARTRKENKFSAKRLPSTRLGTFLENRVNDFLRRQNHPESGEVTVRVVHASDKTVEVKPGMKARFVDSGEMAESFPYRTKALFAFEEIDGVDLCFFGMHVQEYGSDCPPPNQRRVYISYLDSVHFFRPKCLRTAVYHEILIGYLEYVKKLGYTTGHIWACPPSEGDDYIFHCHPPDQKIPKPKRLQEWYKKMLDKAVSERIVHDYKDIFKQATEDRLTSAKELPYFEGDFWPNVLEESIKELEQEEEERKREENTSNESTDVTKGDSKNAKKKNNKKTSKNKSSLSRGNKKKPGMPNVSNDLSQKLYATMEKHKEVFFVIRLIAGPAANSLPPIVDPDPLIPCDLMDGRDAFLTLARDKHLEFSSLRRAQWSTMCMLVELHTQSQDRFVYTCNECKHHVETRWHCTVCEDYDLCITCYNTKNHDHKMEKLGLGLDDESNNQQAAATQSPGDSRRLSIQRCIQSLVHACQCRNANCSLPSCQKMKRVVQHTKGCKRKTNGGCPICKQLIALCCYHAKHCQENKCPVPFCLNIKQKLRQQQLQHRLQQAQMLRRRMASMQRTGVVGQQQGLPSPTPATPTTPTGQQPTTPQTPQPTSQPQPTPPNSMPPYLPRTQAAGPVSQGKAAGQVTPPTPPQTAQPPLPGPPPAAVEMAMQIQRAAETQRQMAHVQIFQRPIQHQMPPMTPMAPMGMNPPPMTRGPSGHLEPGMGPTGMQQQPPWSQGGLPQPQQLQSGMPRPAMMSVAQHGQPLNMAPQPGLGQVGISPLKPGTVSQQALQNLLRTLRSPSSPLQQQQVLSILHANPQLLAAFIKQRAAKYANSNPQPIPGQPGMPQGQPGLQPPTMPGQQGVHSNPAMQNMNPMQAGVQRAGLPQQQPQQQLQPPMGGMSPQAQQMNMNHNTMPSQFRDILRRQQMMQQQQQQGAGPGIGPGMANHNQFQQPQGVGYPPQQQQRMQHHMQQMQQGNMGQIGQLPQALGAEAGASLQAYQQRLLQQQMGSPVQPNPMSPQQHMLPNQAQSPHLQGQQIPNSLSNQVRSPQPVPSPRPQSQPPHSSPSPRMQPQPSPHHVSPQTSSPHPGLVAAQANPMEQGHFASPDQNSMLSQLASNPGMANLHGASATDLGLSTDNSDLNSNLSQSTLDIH
Sequence of Transcription initiation factor TFIID subunit 1 (Homo sapiens) (P21675 whole entry): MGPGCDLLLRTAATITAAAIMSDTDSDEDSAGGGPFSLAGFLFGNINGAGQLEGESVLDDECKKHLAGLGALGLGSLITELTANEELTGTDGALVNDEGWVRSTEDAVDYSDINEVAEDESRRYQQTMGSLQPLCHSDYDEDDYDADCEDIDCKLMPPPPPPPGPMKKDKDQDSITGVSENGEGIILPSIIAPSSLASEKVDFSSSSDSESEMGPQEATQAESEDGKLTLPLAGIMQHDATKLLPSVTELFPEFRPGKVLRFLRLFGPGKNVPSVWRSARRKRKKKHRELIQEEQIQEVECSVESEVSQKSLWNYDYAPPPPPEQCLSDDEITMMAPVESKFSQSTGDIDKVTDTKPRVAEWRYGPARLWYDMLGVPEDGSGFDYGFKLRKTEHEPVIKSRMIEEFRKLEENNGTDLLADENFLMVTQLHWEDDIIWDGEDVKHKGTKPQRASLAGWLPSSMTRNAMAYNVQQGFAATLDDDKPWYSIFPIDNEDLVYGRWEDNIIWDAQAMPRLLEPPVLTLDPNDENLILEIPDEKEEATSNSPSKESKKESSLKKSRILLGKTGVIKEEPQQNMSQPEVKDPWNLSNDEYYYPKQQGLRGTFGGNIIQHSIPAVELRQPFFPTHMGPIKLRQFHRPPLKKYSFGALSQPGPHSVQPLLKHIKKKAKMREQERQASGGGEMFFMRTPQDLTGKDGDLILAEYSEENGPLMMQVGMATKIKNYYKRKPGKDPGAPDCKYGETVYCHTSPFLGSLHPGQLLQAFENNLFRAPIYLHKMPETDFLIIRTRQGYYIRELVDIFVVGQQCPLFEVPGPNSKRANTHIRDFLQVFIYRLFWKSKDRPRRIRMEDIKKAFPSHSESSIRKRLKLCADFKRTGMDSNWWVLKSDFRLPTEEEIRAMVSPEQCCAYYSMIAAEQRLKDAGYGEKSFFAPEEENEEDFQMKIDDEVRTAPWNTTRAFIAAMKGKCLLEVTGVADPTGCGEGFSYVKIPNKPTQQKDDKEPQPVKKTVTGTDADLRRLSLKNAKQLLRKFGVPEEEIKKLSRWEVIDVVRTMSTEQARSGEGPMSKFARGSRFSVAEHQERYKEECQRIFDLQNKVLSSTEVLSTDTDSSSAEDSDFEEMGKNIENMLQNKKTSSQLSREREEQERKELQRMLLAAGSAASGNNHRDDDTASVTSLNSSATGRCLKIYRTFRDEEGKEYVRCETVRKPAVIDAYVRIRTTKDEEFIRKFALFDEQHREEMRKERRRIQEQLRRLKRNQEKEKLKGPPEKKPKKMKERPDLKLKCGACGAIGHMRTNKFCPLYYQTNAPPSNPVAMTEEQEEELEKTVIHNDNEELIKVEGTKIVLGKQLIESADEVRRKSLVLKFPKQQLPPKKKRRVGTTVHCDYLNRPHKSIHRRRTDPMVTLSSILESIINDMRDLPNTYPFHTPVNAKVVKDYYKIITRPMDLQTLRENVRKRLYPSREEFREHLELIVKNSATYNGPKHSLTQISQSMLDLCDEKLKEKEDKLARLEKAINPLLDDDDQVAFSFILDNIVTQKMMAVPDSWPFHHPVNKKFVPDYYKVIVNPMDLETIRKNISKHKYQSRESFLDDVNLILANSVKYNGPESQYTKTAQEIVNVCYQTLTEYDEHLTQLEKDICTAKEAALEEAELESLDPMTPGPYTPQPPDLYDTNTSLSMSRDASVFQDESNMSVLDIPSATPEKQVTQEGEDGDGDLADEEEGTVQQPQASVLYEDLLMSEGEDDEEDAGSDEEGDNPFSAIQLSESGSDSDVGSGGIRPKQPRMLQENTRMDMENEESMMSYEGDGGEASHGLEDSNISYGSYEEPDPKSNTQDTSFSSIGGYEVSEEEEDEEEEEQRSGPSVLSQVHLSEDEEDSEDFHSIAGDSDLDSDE

As for `COc1cc2c(cc1-c1c(C)noc1C)ncc1nc(C)n([C@H](C)c3ccccc3)c12`, the Activity in assay [1] was under 30%; in assay [2], under 30%; in [4], under 30%; in assay [6] it was under 30%; in assay [7] it was over 80%; in assay [8] it was over 80%. Besides, the ΔTm – broadly, the shift of the melting midpoint relative to a reference – in assay [3] is 0 °C; in assay [5], 0 °C; in [9], 5 °C; in assay [11], 5 °C. For the same compound, in assay [10], the pIC50 (usually the IC50 on a negative log10 scale, so that one unit is a factor of ten) is 6.37.

Turning to `COc1cc2c(cc1-c1c(C)n[nH]c1C)ncc1nc(C)n([C@H](C)c3ccccc3)c12`, the Activity in assay [1] is under 30%; in assay [2] it was under 30%; in assay [4], under 30%; in [6] it was under 30%; in assay [7] it was under 30%; in assay [8] it was 50%. For the same compound, the ΔTm in assay [3], in assay [5], in [9] and in assay [11] was 0 °C in each case. The compound further gave a pIC50 in assay [10] of 6.18.
